According to patent US20250188060A1, “ALPHA1A-ADRENERGIC RECEPTOR AGONISTS AND METHODS OF USE” (CuraSen Therapeutics, Inc., priority 2022, published 2025):
Where two headings read alike, the source gives them in different places.

Target: T1, α1A-ARs (Homo sapiens, UniProt P35348)
T1 sequence (P35348 1-466): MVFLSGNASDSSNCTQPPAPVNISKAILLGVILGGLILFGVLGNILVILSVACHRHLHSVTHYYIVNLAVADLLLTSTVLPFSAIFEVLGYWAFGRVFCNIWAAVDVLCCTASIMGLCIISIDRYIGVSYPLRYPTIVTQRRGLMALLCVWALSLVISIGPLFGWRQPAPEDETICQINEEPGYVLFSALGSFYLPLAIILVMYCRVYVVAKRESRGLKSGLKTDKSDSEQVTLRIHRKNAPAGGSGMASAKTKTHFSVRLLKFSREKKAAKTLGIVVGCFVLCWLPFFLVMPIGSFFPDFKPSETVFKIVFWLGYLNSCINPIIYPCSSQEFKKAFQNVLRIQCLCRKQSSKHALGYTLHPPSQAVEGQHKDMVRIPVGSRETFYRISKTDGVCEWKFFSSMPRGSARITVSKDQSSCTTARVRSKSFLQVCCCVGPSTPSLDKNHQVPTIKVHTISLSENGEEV
Assay: Calcium flux assay (Calcium 6 dye) in cells expressing an α1-AR
Type: cell-based
Conditions: for Emax: read-out: Average Emax (% epi); for EC50: read-out: Average pEC50 (converted)
From the text: Calcium flux experimental design: alpha-1 adrenergic receptors (α1-ARs) couple to Gq proteins, which results in downstream activation of phospholipase C and release of calcium from intracellular stores. Intracellular calcium increase upon α1-AR activation can be detected by Calcium 6 dye.
Cell preparation: cells expressing an α1-AR were washed in warmed phosphate-buffered saline to remove medium and harvested using versene (Caisson Labs, catalog #EDL01).
Media was removed from cells by tapping plates upside-down on absorbent wipes, followed by 15 second upside-down 50×g centrifugation, again on absorbent wipes. 12 μL cell dye solution was added to cells using a reagent dispenser (Integra viaFILL) and cells were incubated for 90 minutes at 37° C., 5% CO2.
Compound preparation: candidate alpha-adrenergic compounds, dissolved to 10 mM in DMSO, were diluted in assay buffer (HBSS/HEPES containing 2 mM CaCl2) and 2 mM probenecid sodium salt). […] On all assay plates, vehicle (DMSO) and positive control (10 μM epinephrine) conditions were included on the plate, as well as a dose-response curve of epinephrine. […] 384 well compound plates were centrifuged briefly at 250×g, sealed (Axygen PCR-SP) and incubated at 37° C. until the 90 minute cell dye incubation was complete.
Calcium 6 stained cells and 384 well compound plates were loaded onto the Flexstation and incubated on the machine for 5 minutes before initiating the assay.
For each assay well, baseline Calcium 6 fluorescence was detected for 18 seconds prior to 12 μL compound addition at 12 μL per second. Changes in Calcium 6 fluorescence were detected for a further 22 seconds, for a total read time of 40 seconds. All detection was performed with medium gain sensitivity, bottom read, with 6 flashes per read.
Data analysis: for calcium flux, analysis of maximum change from baseline over the 40-second read time was determined using Softmax Pro and data was exported as raw text files. Potency estimates (EC50) were derived from dose response curves (maximum change from baseline versus the log concentration of test compound) fit by four-parameter nonlinear regression using Graphpad Prism. Efficacy was determined by comparing the magnitude of the test compound signal window (fitted curve max−min) with the signal window of the full agonist control, epinephrine. […] All experiments were repeated a minimum of three times, with the average (mean) potency and maximum effect relative to the within-plate full agonist dose-response comparator reported.

[1] = α1A-AR calcium flux, mean of at least three experiments
[2] = α1A-AR calcium flux, relative to full agonist epinephrine, mean of at least three experiments

Compound | EC50 [1] [nM] | Emax [2] [%] | Emax [%]
Clc1cccc2c(C3CC3)cn(CC3=NCCN3)c12 [Compound 3] | < 9.77 | – | 21 to 60
Cc1cn(CC2=NCCN2)c2c(Cl)ccc(C(C)C)c12 [Compound 5] | 10 to 977 | – | > 61
COc1ccc(C(C)C)c2ccn(CC3=NCCN3)c12 [Compound 7] | 10 to 977 | – | > 61
Fc1cc(Cl)c2c(c1)c(C1CC1)cn2CC1=NCCN1 [Compound 8] | 10 to 977 | – | < 20
Cc1cc2c(C(C)C)ccc(Cl)c2n1CC1=NCCN1 [Compound 10] | 10 to 977 | – | > 61
Fc1cc(F)c2c(c1)c(C1CC1)cn2CC1=NCCN1 [Compound 11] | < 9.77 | – | > 61
Fc1ccc2c(C3CC3)cn(CC3=NCCN3)c2c1Cl [Compound 12] | < 9.77 | – | 21 to 60
Clc1cccc2ccn(CC3=NCCN3)c12 [Compound 13] | 10 to 977 | – | 21 to 60
Clc1cccc2cnn(CC3=NCCN3)c12 [Compound 15] | > 1000 | – | < 20
CC(C)(C)c1nn(CC2=NCCN2)c2c(Cl)cccc12 [Compound 16] | > 1000 | – | < 20
Cc1cn(CC2=NCCN2)c2c(Cl)cccc12 [Compound 17] | < 9.77 | – | > 61
N#Cc1cn(CC2=NCCN2)c2c(Cl)cccc12 [Compound 18] | 10 to 977 | – | > 61
Cc1cc2cccc(Cl)c2n1CC1=NCCN1 [Compound 19] | > 1000 | – | < 20
Clc1nn(CC2=NCCN2)c2c(Cl)cccc12 [Compound 20] | 10 to 977 | – | > 61
Fc1cc(Cl)c2c(c1)c(Cl)nn2CC1=NCCN1 [Compound 23] | 10 to 977 | – | > 61
Fc1ccc2c(Cl)nn(CC3=NCCN3)c2c1Cl [Compound 24] | 10 to 977 | – | > 61

Compound | EC50 [1] [nM] | Emax [2] [%] | Emax [%]
FC(F)(F)c1nn(CC2=NCCN2)c2c(Cl)cccc12 [Compound 25] | 10 to 977 | – | 21 to 60
Fc1cccc2c(Cl)nn(CC3=NCCN3)c12 [Compound 26] | 10 to 977 | – | 21 to 60
FC(F)(F)c1cccc2c(Cl)nn(CC3=NCCN3)c12 [Compound 27] | 10 to 977 | – | > 61
Cc1ccnc2c(Cl)nn(CC3=NCCN3)c12 [Compound 30] | 10 to 977 | – | > 61
Clc1ccc2c(c1)c(Cl)nn2CC1=NCCN1 [Compound 31] | > 1000 | – | 21 to 60
Clc1ccc2c(Cl)nn(CC3=NCCN3)c2c1 [Compound 32] | 10 to 977 | – | > 61
CC(C)Oc1cccc2c(Cl)nn(CC3=NCCN3)c12 [Compound 38] | > 1000 | – | 21 to 60
CC(F)(F)c1cccc2c(Cl)nn(CC3=NCCN3)c12 [Compound 39] | 10 to 977 | – | 21 to 60
CCc1cccc2c(Cl)nn(CC3=NCCN3)c12 [Compound 40] | 10 to 977 | – | > 61
FC(F)c1cccc2c(Cl)nn(CC3=NCCN3)c12 [Compound 43] | > 1000 | – | < 20
Clc1cccc2c1c(Cl)nn2CC1=NCCN1 [Compound 45] | > 1000 | – | < 20
Cc1cc(Cl)cc2c(Cl)nn(CC3=NCCN3)c12 [Compound 46] | 10 to 977 | – | > 61
CC(C)c1cccc2c(Cl)nn(CC3=NCCN3)c12 [Compound 47] | 10 to 977 | – | > 61
Cc1cc(F)cc2c(Cl)nn(CC3=NCCN3)c12 [Compound 50] | > 1000 | – | < 20
Cc1cccc2c(C(F)(F)F)nn(CC3=NCCN3)c12 [Compound 61] | > 1000 | – | < 20
Cc1cccc2c(C(C)(F)F)nn(CC3=NCCN3)c12 [Compound 62] | 10 to 977 | – | > 61

Continued, in another order:

EC50 [1] [nM] | Emax [2] [%] | Compound | Emax [%]
> 1000 | < 20 | Clc1cn(-c2cn[nH]c2)c2cc(CC3=NCCN3)ccc12 [Compound 4] | –
> 1000 | < 20 | CC(C)c1ccc(Cl)c2c1c(S(C)(=O)=O)cn2CC1=NCCN1 [Compound 9] | –
> 1000 | < 20 | Clc1cccc2c(-c3cccnc3)nn(CC3=NCCN3)c12 [Compound 14] | –
10 to 977 | > 61 | Clc1nn(CC2=NCCN2)c2c(-n3cccc3)cccc12 [Compound 33] | –
10 to 977 | 21 to 60 | Clc1nn(CC2=NCCN2)c2c(-c3ccccc3)cccc12 [Compound 34] | –
10 to 977 | 21 to 60 | Clc1nn(CC2=NCCN2)c2c(-n3cccn3)cccc12 [Compound 36] | –
10 to 977 | > 61 | FC(F)(F)Oc1cccc2c(Cl)nn(CC3=NCCN3)c12 [Compound 37] | –
> 1000 | 21 to 60 | Clc1cccc2c(-c3ccccc3)nn(CC3=NCCN3)c12 [Compound 42] | –
10 to 977 | 21 to 60 | Clc1nn(CC2=NCCN2)c2c(-c3ccccn3)cccc12 [Compound 48] | –
10 to 977 | 21 to 60 | Clc1cccc2c(-c3ccncc3)nn(CC3=NCCN3)c12 [Compound 49] | –
10 to 977 | 21 to 60 | Clc1cccc2c(-c3ccccn3)nn(CC3=NCCN3)c12 [Compound 51] | –
> 1000 | < 20 | Clc1nn(CC2=NCCN2)c2c(-c3cnccn3)cccc12 [Compound 52] | –
> 1000 | 21 to 60 | FC(F)(F)Cc1cccc2c(Cl)nn(CC3=NCCN3)c12 [Compound 53] | –
> 1000 | 21 to 60 | Clc1cccc2c(C3=CCOCC3)nn(CC3=NCCN3)c12 [Compound 54] | –
> 1000 | < 20 | Clc1cccc2c(-c3ncco3)nn(CC3=NCCN3)c12 [Compound 55] | –
> 1000 | < 20 | Clc1cccc2c(N3CCCC3)nn(CC3=NCCN3)c12 [Compound 56] | –
10 to 977 | > 61 | Clc1cccc2c(-n3cccc3)nn(CC3=NCCN3)c12 [Compound 58] | –

EC50 [1] [nM] | Emax [2] [%] | Compound | Emax [%]
> 1000 | < 20 | Clc1nn(CC2=NCCN2)c2c(-c3ccon3)cccc12 [Compound 59] | –
> 1000 | > 61 | Clc1cccc2c(-n3cccn3)nn(CC3=NCCN3)c12 [Compound 60] | –
10 to 977 | > 61 | Clc1cccc2c(-c3ccon3)nn(CC3=NCCN3)c12 [Compound 63] | –
> 1000 | < 20 | FC(F)(F)c1cc(Cl)cc2c(Cl)nn(CC3=NCCN3)c12 [Compound 64] | –
10 to 977 | > 61 | Fc1cc(C(F)(F)F)c2c(c1)c(Cl)nn2CC1=NCCN1 [Compound 65] | –
10 to 977 | 21 to 60 | Cc1cc(Cl)cc2c(N3CCCC3)nn(CC3=NCCN3)c12 [Compound 66] | –
> 1000 | 21 to 60 | Clc1nn(CC2=NCCN2)c2c(N3CCCC3)cccc12 [Compound 67] | –
> 1000 | < 20 | Cc1cccc2c(N3CCCCC3)nn(CC3=NCCN3)c12 [Compound 68] | –
> 1000 | < 20 | Cc1cc(Cl)cc2c(N3CCCCC3)nn(CC3=NCCN3)c12 [Compound 69] | –
10 to 977 | 21 to 60 | Clc1nn(CC2=NCCN2)c2c(N3CCCCC3)cccc12 [Compound 70] | –
> 1000 | < 20 | FC(F)(F)c1cccc2c(N3CCCC3)nn(CC3=NCCN3)c12 [Compound 71] | –
10 to 977 | > 61 | CC(F)(F)c1cc(Cl)cc2c(Cl)nn(CC3=NCCN3)c12 [Compound 72] | –
10 to 977 | > 61 | Cc1cc(C(F)(F)F)cc2c(Cl)nn(CC3=NCCN3)c12 [Compound 73] | –
> 1000 | 21 to 60 | CC(F)(F)c1cccc2c(N3CCCC3)nn(CC3=NCCN3)c12 [Compound 74] | –
10 to 977 | 21 to 60 | CC(F)(F)c1cc(F)cc2c(Cl)nn(CC3=NCCN3)c12 [Compound 75] | –
10 to 977 | 21 to 60 | Cc1cc(F)cc2c(N3CCCC3)nn(CC3=NCCN3)c12 [Compound 77] | –
